# In article PMC9945734 (BMC Medicine, 2023):
# Like-named read-outs stand apart in the source and are kept apart here.
# Test system: PC-3-KQ cells
# Test: 3D spheroid invasion assay and screening of FDA-approved drugs
# Assay type: cell-based, human
# Conditions: for Invasion rates (%) of each drug’s multiple concentrations (μM) / activity at 0.01 µM / activity at 0.1 µM / activity at 1 µM / activity at 10 µM: compared to vehicle control; for activity at 0.01 µM / activity at 0.1 µM / activity at 1 µM / activity at 10 µM: 72 h
# Outline: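 Cells were clustered into spheroids by centrifugation and grown 3 days, then embedded in matrigel-medium containing drug on day 4 and cultured another 3 days. Drugs were screened at 10 μM first, then at 0–10 μM, in duplicate wells. Invasion area is total area minus core sphere area from phase-contrast images.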
# [1] = 0.01 μM (first column so headed), secondary screening of 87 hit compounds (Table S1)
# [2] = 0.01 μM (second column so headed), secondary screening of 87 hit compounds (Table S1)
# [3] = 0.1 μM, secondary screening of 87 hit compounds (Table S1)
# [4] = 1 μM, secondary screening of 87 hit compounds (Table S1)
# [5] = 10 μM, secondary screening of 87 hit compounds (Table S1)
# [6] = Homo sapiens, 0.01 μM (first column so headed), secondary screening of 87 hit compounds (Table S1), read-out: Invasion rates (%) of each drug’s multiple concentrations
# [7] = Homo sapiens, 0.01 μM (second column so headed), secondary screening of 87 hit compounds (Table S1), read-out: Invasion rates (%) of each drug’s multiple concentrations
# [8] = Homo sapiens, 0.1 μM, secondary screening of 87 hit compounds (Table S1), read-out: Invasion rates (%) of each drug’s multiple concentrations
# [9] = Homo sapiens, 1 μM, secondary screening of 87 hit compounds (Table S1), read-out: Invasion rates (%) of each drug’s multiple concentrations
# [10] = Homo sapiens, 10 μM, secondary screening of 87 hit compounds (Table S1), read-out: Invasion rates (%) of each drug’s multiple concentrations
# [11] = Homo sapiens, 0.01 μM (first column so headed), third screening of 25 hit compounds (Table S2), read-out: Invasion rates (%) of each drug’s multiple concentrations
# [12] = Homo sapiens, 0.01 μM (second column so headed), third screening of 25 hit compounds (Table S2), read-out: Invasion rates (%) of each drug’s multiple concentrations
# [13] = Homo sapiens, 0.1 μM, third screening of 25 hit compounds (Table S2), read-out: Invasion rates (%) of each drug’s multiple concentrations
# [14] = Homo sapiens, 1 μM, third screening of 25 hit compounds (Table S2), read-out: Invasion rates (%) of each drug’s multiple concentrations
# [15] = Homo sapiens, 10 μM, third screening of 25 hit compounds (Table S2), read-out: Invasion rates (%) of each drug’s multiple concentrations
SMILES,Invasion rates (%) of each drug’s multiple concentrations (μM) [1] [%],Invasion rates (%) of each drug’s multiple concentrations (μM) [2] [%],Invasion rates (%) of each drug’s multiple concentrations (μM) [3] [%],Invasion rates (%) of each drug’s multiple concentrations (μM) [4] [%],Invasion rates (%) of each drug’s multiple concentrations (μM) [5] [%],activity at 0.01 µM [6] [%],activity at 0.01 µM [7] [%],activity at 0.1 µM [8] [%],activity at 1 µM [9] [%],activity at 10 µM [10] [%],also measured
CCCCCCCCN=c1ccn(CCCCCCCCCCn2ccc(=NCCCCCCCC)cc2)cc1.Cl.Cl [Octenidine (dihydrochloride)],97.90,100.69,97.53,95.54,46.51,–,–,–,–,–,–
Cc1ncc([N+](=O)[O-])n1CC(O)CCl (stereo not shown) [Ornidazole (Levo-)],90.43,93.59,87.04,71.01,4.84,–,–,–,–,–,–
C=CC(=O)Nc1cc(Nc2nccc(-c3cn(C)c4ccccc34)n2)c(OC)cc1N(C)CCN(C)C [Osimertinib],–,–,–,–,–,89,98.8,86.4,83.8,5.6,–
CN(C)[C@@H]1C(O)=C(C(N)=O)C(=O)[C@@]2(O)C(O)=C3C(=O)c4c(O)cccc4[C@@](C)(O)[C@H]3[C@H](O)[C@@H]12 [Oxytetracycline],–,–,–,–,–,84.1,91,82.2,71.3,8.26,–
CNc1ncc(-c2ccc3c(=O)c(C(=O)O)cn(C4CC4)c3c2C)cc1C [Ozenoxacin],96.05,100.15,94.32,88.16,4.14,–,–,–,–,–,–
COc1cccc2c1C(=O)c1c(O)c3c(c(O)c1C2=O)C[C@@](O)(C(=O)CO)C[C@@H]3O[C@H]1C[C@H](N)[C@H](O[C@@H]2CCCCO2)[C@H](C)O1.Cl [Pirarubicin (Hydrochloride)],87.28,91.46,86.00,81.69,10.50,–,–,–,–,–,–
Cc1ccc(C(=O)Nc2ccc(CN3CCN(C)CC3)c(C(F)(F)F)c2)cc1C#Cc1cnc2cccnn12 [Ponatinib],–,–,–,–,–,–,–,–,–,–,"activity at 0.01 µM (Homo sapiens, read-out: Invasion rates (%) of each drug’s multiple concentrations (μM), 0.01 μM (first column so headed), secondary screening of 87 hit compounds (Table S1)): 94.4%; activity at 0.01 µM (Homo sapiens, read-out: Invasion rates (%) of each drug’s multiple concentrations (μM), 0.01 μM (second column so headed), secondary screening of 87 hit compounds (Table S1)): 94.5%; activity at 0.1 µM (Homo sapiens, read-out: Invasion rates (%) of each drug’s multiple concentrations (μM), 0.1 μM, secondary screening of 87 hit compounds (Table S1)): 94.8%; activity at 1 µM (Homo sapiens, read-out: Invasion rates (%) of each drug’s multiple concentrations (μM), 1 μM, secondary screening of 87 hit compounds (Table S1)): 91%; activity at 10 µM (Homo sapiens, read-out: Invasion rates (%) of each drug’s multiple concentrations (μM), 10 μM, secondary screening of 87 hit compounds (Table S1)): 17.7%"
CN(C)C(=O)c1cc2cnc(Nc3ccc(N4CCNCC4)cn3)nc2n1C1CCCC1 [Ribociclib],–,–,–,–,–,99.5,101,97.2,96,30.9,–
Cn1c([N+](=O)[O-])cnc1COC(N)=O [Ronidazole],–,–,–,–,–,64.2,67.3,27.6,5.96,5.14,"activity at 0.01 µM [11]: 81.8%; activity at 0.01 µM [12]: 87.5%; activity at 0.1 µM [13]: 5.74%; activity at 1 µM [14]: 3.06%; activity at 10 µM [15]: 2.89%; inhibition at 0.1 µM (Homo sapiens, at 0.1 μM, read-out: inhibition of cell invasion): > 50%"
Cc1ncc([N+](=O)[O-])n1CC(C)O (stereo not shown) [Secnidazole],–,–,–,–,–,94.7,96.4,89,82.8,4.4,–
COc1ccc2c(O[C@@H]3C[C@H]4C(=O)N[C@]5(C(=O)NS(=O)(=O)C6CC6)C[C@H]5/C=C\CCCCN(C)C(=O)[C@@H]4C3)cc(-c3nc(C(C)C)cs3)nc2c1C [Simeprevir],–,–,–,–,–,98.5,101,97.2,96.2,38.8,–
CNC(=O)c1cc(Oc2ccc(NC(=O)Nc3ccc(Cl)c(C(F)(F)F)c3)cc2)ccn1 [Sorafenib],–,–,–,–,–,91.9,101,91.9,76.2,43.3,–
CCN(CC)CCNC(=O)c1c(C)[nH]c(/C=C2\C(=O)Nc3ccc(F)cc32)c1C [Sunitinib],–,–,–,–,–,88.6,94.9,83.7,61.1,0.8,–
CC/C(=C(\c1ccccc1)c1ccc(OCCN(C)C)cc1)c1ccccc1.O=C(O)CC(O)(CC(=O)O)C(=O)O [Tamoxifen (Citrate)],94.34,97.97,91.22,85.65,1.00,–,–,–,–,–,–
CC/C(=C(\c1ccccc1)c1ccc(OCCN(C)C)cc1)c1ccccc1 [Tamoxifen],–,–,–,–,–,96.2,95.4,97,91.1,24.3,–
Cn1nnc(-c2ccc(-c3ccc(N4C[C@H](COP(=O)(O)O)OC4=O)cc3F)cn2)n1 [Tedizolid (phosphate)],–,–,–,–,–,89,91.7,70.7,3.59,3.35,activity at 0.01 µM [11]: 99.8%; activity at 0.01 µM [12]: 96.1%; activity at 0.1 µM [13]: 90.7%; activity at 1 µM [14]: 3.28%; activity at 10 µM [15]: 2.87%
COc1cc([C@@H]2c3cc4c(cc3[C@@H](O[C@@H]3O[C@@H]5CO[C@@H](c6cccs6)O[C@H]5[C@H](O)[C@H]3O)[C@H]3COC(=O)[C@H]23)OCO4)cc(OC)c1O [Teniposide],–,–,–,–,–,93.1,91.8,85,77.2,3.21,–
CN(C)[C@@H]1C(O)=C(C(N)=O)C(=O)[C@@]2(O)C(O)=C3C(=O)c4c(O)cccc4[C@@](C)(O)[C@H]3C[C@@H]12.Cl [Tetracycline (hydrochloride)],84.87,95.46,83.74,67.27,2.14,–,–,–,–,–,–
CS(=O)(=O)c1ccc([C@@H](O)[C@@H](CO)NC(=O)C(Cl)Cl)cc1 [Thiamphenicol],–,–,–,–,–,90.9,92,91.7,71.5,6.21,–
CN(C)c1cc(NC(=O)CNC(C)(C)C)c(O)c2c1C[C@H]1C[C@H]3[C@H](N(C)C)C(=O)C(C(N)=O)=C(O)[C@@]3(O)C(=O)C1=C2O.CS(=O)(=O)O.CS(=O)(=O)O.CS(=O)(=O)O.CS(=O)(=O)O [Tigecycline (tetramesylate)],59.60,77.93,4.93,4.75,8.35,–,–,–,–,–,"Invasion rates (%) of each drug’s multiple concentrations (μM) (0.01 μM (first column so headed), third screening of 25 hit compounds (Table S2)): 89.06%; Invasion rates (%) of each drug’s multiple concentrations (μM) (0.01 μM (second column so headed), third screening of 25 hit compounds (Table S2)): 89.80%; Invasion rates (%) of each drug’s multiple concentrations (μM) (0.1 μM, third screening of 25 hit compounds (Table S2)): 88.10%; Invasion rates (%) of each drug’s multiple concentrations (μM) (1 μM, third screening of 25 hit compounds (Table S2)): 2.36%; Invasion rates (%) of each drug’s multiple concentrations (μM) (10 μM, third screening of 25 hit compounds (Table S2)): 1.12%"
CCN(CC)CCOc1ccc2c(c1)C(=O)c1cc(OCCN(CC)CC)ccc1-2.Cl.Cl [Tilorone (dihydrochloride)],95.38,99.11,94.30,93.22,9.81,–,–,–,–,–,–
